Measured values taken from patent publication US4843087A (priority 1986, dated 1989).
In brackets after ≈: the same amount, converted by molar mass.

Tested on: human rhinovirus (HRV) serotypes
Experiment: microbe, parasite or virus in culture
Type: cell-based
Conditions: for MIC50: read-out: Rhinovirus MIC50; for IC (MIC80 of serotype panel): read-out: Rhinovirus MIC80

Row | Structure (SMILES) | MIC50 [µg/mL] | IC (MIC80 of serotype panel) [µg/mL]
1 | Cc1cc(CCCCCCCOc2cccc(C3=NCCO3)c2)on1 [26(b), 5-{7-[3-(4,5-Dihydro-2-oxazolyl)phenoxy]heptyl}-3-methylisoxazole] | 0.94 (≈ 2.75 µM) | 1.12
2 | Cc1cc(CCCCCOc2ccc(C3=NCCO3)cc2C(C)(C)C)on1 [Example 76, 5-{5-[4-(4,5-Dihydro-2-oxazolyl)-2-(1,1-dimethylethyl)phenoxy]pentyl}-3-methylisoxazole] | 50.1 (≈ 135 µM) | 99
3 | Cc1cc(CCCCCCCOc2ccc(C3=NC(C)CO3)cc2Cl)on1 (stereo not drawn) [17(b), 5-{7-[2-Chloro-4-(4,5-dihydro-4-methyl-2-oxazolyl)phenoxy]heptyl}-3-methylisoxazole] | 0.89 (≈ 2.28 µM) | 26
4 | Cc1cc(CCCCCOc2c(Cl)cc(C3=NCCCO3)cc2Cl)on1 [156(b)] | 0.705 (≈ 1.77 µM) | 28.6
5 | Cc1cc(CCCCCCCOc2ccc(C3=NC[C@H](C)O3)cc2)on1 [Example 122, (S)-5-{7-[4-(4,5-Dihydro-5-methyl-2-oxazolyl)phenoxy]heptyl}-3-methylisoxazole] | 0.24 (≈ 0.673 µM) | 50.3
6 | Cc1cc(CCCCCCCOc2ccc(C3=N[C@H](C(C)C)CO3)cc2)on1 [Example 127, (R)-5-{7-[4-(4,5-Dihydro-4-isopropyl-2-oxazolyl)phenoxy]heptyl}-3-methylisoxazole] | 0.76 (≈ 1.98 µM) | 1.4
7 | Cc1cc(CCCCCCCOc2ccc(C3=N[C@@H](C(C)C)CO3)cc2)on1 [Example 126, (S)-5-{7-[4-(4,5-Dihydro-4-isopropyl-2-oxazolyl)phenoxy]heptyl}-3-methylisoxazole] | 1.23 (≈ 3.2 µM) | 26.2
8 | Cc1cc(CCCCCOc2c(C)cc(-c3nc(C)c(C)o3)cc2C)on1 [118(c), 5-{5-[4-(4,5-Dimethyl-2-oxazolyl)-2,6-dimethylphenoxy]pentyl}-3-methylisoxazole] | 0.37 (≈ 1 µM) | 0.84
9 | Cc1cc(CCCCCCCOc2ccc(C3=NCC(CO)O3)cc2)on1 (stereo not drawn) [Example 23, 5-{7-[4-(4,5-Dihydro-5-hydroxymethyl-2-oxazolyl)phenoxy]heptyl}-3-methylisoxazole] | 1.55 (≈ 4.16 µM) | 2.9
10 | CCCC[C@H]1COC(c2ccc(OCCCCCCCc3cc(C)no3)cc2)=N1 [Example 130, (S)-5-{7-[4-(4-Butyl-4,5-dihydro-2-oxazolyl)phenoxy]heptyl}-3-methylisoxazole] | 1.08 (≈ 2.71 µM) | 2.07
11 | Cc1cc(CCC=CCOc2ccc(C3=NCCO3)cc2)on1 [Example 55, 5-{5-[4-(4,5-Dihydro-2-oxazolyl)phenoxy]-3-pentenyl}-3-methylisoxazole] | 49.6 (≈ 159 µM) | 99
12 | Cc1cc(CCCCOc2ccc(C3=NC(C)(C)CO3)cc2Cl)on1 [Example 66, 5-{4-[2-Chloro-4-(4,5-dihydro-4,4-dimethyl-2-oxazolyl)phenoxy]butyl}-3-methylisoxazole] | 0.78 (≈ 2.15 µM) | 99
13 | Cc1cc(CCCCCOc2ccc(C3=NC(C)(C)CO3)cc2Cl)on1 [Example 57, 5-{5-[2-Chloro-4-(4,5-dihydro-4,4-dimethyl-2-oxazolyl)phenoxy]pentyl}-3-methylisoxazole] | 50.1 (≈ 133 µM) | 99
14 | Cc1cc(CCCCCOc2c(Cl)cc(C(=O)NCCCCl)cc2Cl)on1 [156(a), 3,5-Dichloro-N-(3-chloropropyl)-4-{[5-(3-methyl-5-isoxazolyl)pentyl]oxy}benzamide] | 0.795 (≈ 1.83 µM) | 99
15 | Cc1cc(CCCCCCCOc2ccc(C3=NC(CCl)CO3)cc2)on1 (stereo not drawn) [Example 140, 5-{7-[4-(4-Chloromethyl-4,5-dihydro-2-oxazolyl)phenoxy]heptyl}-3-methylisoxazole] | 0.49 (≈ 1.25 µM) | 26.9
16 | Cc1cc(CCCCCCCCOc2ccc(C3=NCCO3)cc2)on1 [18(b), 5-{8-[4-(4,5-Dihydro-2-oxazolyl)phenoxy]octyl}-3-methylisoxazole] | 1.75 (≈ 4.91 µM) | 2.1
17 | CCC[C@H]1COC(c2ccc(OCCCCCCCc3cc(C)no3)cc2)=N1 [Example 128, (S)-5-{7-[4-(4,5-Dihydro-4-propyl-2-oxazolyl)phenoxy]heptyl}-3-methylisoxazole] | 0.245 (≈ 0.637 µM) | 27.1
18 | Cc1cc(CCCCCOc2ccc(C3=N[C@@H](C)CO3)cc2)on1 [Example 121, (S)-5-{5-[4-(4,5-Dihydro-4-methyl-2-oxazolyl)phenoxy]pentyl}-3-methylisoxazole] | 0.09 (≈ 0.274 µM) | 26
19 | Cc1cc(CCCCCOc2c(Cl)cc(C3=NCCO3)cc2Cl)sn1 [150(b), 2-{3,5-Dichloro-4-[(5-(3-methyl-5-isothiazolyl)pentyl)oxy]phenyl}-4,5-dihydro-oxazole] | 0.12 (≈ 0.3 µM) | 0.35
20 | Cc1cc(CCCCCCCOc2ccc(C3=NC(C)(C)CO3)cc2)on1 [Example 5, 5-{7-[4-(4,5-Dihydro-4,4-dimethyl-2oxazolyl)phenoxy]heptyl}-3-methylisoxazole] | 1.3 (≈ 3.51 µM) | 99

Row | Structure (SMILES) | MIC50 [µg/mL] | IC (MIC80 of serotype panel) [µg/mL]
21 | Cc1cc(CCCCCOc2ccc(C3=NCCO3)c(Cl)c2Cl)on1 [Example 72, 5-{5-[2,3-Dichloro-4-(4,5-dihydro-2-oxazolyl)phenoxy]pentyl}-3-methylisoxazole] | 0.27 (≈ 0.704 µM) | 0.69
22 | Cc1cc(CCCCCOc2c(C)cc(C3=NCCO3)c(Cl)c2C)on1 [Example 160, 5-{5-[3-Chloro-4-(4,5-dihydro-2-oxazolyl)-2,6-dimethylphenoxy]pentyl}-3-methylisoxazole] | 0.24 (≈ 0.637 µM) | 0.4
23 | C=CCC1COC(c2ccc(OCCCCCCCc3cc(C)no3)cc2)=N1 (stereo not drawn) [Example 139, 5-{7-[4-(4,5-Dihydro-4-(2-propenyl)-2-oxazolyl)phenoxy]heptyl}-3-methylisoxazole] | 0.795 (≈ 2.08 µM) | 25.9
24 | CC[C@H]1COC(c2ccc(OCCCCCCCc3cc(C)no3)cc2)=N1 [Example 124, (S)-5-{7-[4-(4-Ethyl-4,5-dihydro-2oxazolyl)phenoxy]heptyl}-3-methylisoxazole] | 0.36 (≈ 0.972 µM) | 2.4
25 | Cc1cc(CCCCCOc2ccc(-c3nc(C)c(C)o3)cc2C(F)(F)F)on1 [Example 91, 5-{5-[4-(4,5-Dimethyl-2-oxazolyl)-2-trifluoromethylphenoxy]pentyl}-3-methylisoxazole] | 0.75 (≈ 1.84 µM) | 1.4
26 | CCC[C@@H]1COC(c2ccc(OCCCCCCCc3cc(C)no3)cc2)=N1 [Example 129, (R)-5-{7-[4-(4,5-Dihydro-4-propyl-2-oxazolyl)phenoxy]heptyl}-3-methylisoxazole] | 1.33 (≈ 3.46 µM) | 2.6
27 | Cc1cc(CCCCCOc2c(Cl)cc(C3=NC(CO)CO3)cc2Cl)on1 (stereo not drawn) [Example 138, 5-{5-[2,6-Dichloro-4-(4,5-dihydro-4-hydroxymethyl-2-oxazolyl)phenoxy]pentyl}-3-methylisoxazole] | 0.2 (≈ 0.484 µM) | 1.2
28 | Cc1cc(CCCCOc2c(Cl)cc(-c3nc(C)c(C)o3)cc2Cl)on1 [Example 120, 5-{4-[2,6-Dichloro-4-(4,5-dimethyl-2-oxazolyl)phenoxy]butyl}-3-methylisoxazole] | 0.16 (≈ 0.405 µM) | 0.67
29 | Cc1cc(CCCCCCCOc2ccc(C3=N[C@@H](C)CO3)cc2)on1 [Example 4, (-)-5-{7-[4-(4,5-Dihydro-4-methyl-2oxazolyl)phenoxy]heptyl}-3-methylisoxazole] | 0.025 (≈ 0.0701 µM) | 0.03
30 | COCC1CN=C(c2ccc(OCCCCCCCc3cc(C)no3)cc2)O1 (stereo not drawn) [Example 40, 5-{7-[4-(4,5-Dihydro-5-methoxymethyl-2-oxazolyl)phenoxy]heptyl}-3-methylisoxazole] | 0.535 (≈ 1.38 µM) | 99
31 | CCCCCCc1cc(CCOc2ccc(C3=N[C@@H](C)CO3)cc2)on1 [Example 132, (S)-5-{2-[4-(4,5-Dihydro-4-methyl-2-oxazolyl)phenoxy]ethyl}-3-hexylisoxazole] | 1.02 (≈ 2.88 µM) | 1.9
32 | Cc1cc(CCCCCCCOc2ccc(C3=NCC(CCl)O3)cc2)on1 (stereo not drawn) [Example 39, 5-{7-[4-(5-Choromethyl-4,5-dihydro-2-oxazolyl)phenoxy]heptyl}-3-methylisoxazole] | 0.87 (≈ 2.23 µM) | 99
33 | OCCOCOCc1cc(CCCCCOc2c(Cl)cc(C3=NCCO3)cc2Cl)on1 [149(b), 5-{5-[2,6-Dichloro-4-(4,5-dihydro-2-oxazolyl)phenoxy]pentyl}-3-isoxazolylmethoxymethoxyethanol] | 0.13 (≈ 0.275 µM) | 1.1
34 | CCCC[C@@H]1COC(c2ccc(OCCCCCCCc3cc(C)no3)cc2)=N1 [Example 131, (R)-5-{7-[4-(4-Butyl-4,5-dihydro-2-oxazolyl)phenoxy]heptyl}-3-methylisoxazole] | 1.44 (≈ 3.61 µM) | 2.38
35 | CC[C@@H]1COC(c2ccc(OCCCCCCCc3cc(C)no3)cc2)=N1 [Example 125, (R)-5-{7-[4-(4-Ethyl-4,5-dihydro-2-oxazolyl)phenoxy]heptyl}-3-methylisoxazole] | 0.69 (≈ 1.86 µM) | 2.3
36 | Cc1cc(CCCC(C)Oc2c(Cl)cc(C3=NCCO3)cc2Cl)on1 (stereo not drawn) [Example 110, 5-{4-[2,6-Dichloro-4-(4,5-dihydro-2-oxazolyl)phenoxy]pentyl}-3-methylisoxazole] | 0.24 (≈ 0.626 µM) | 0.64
37 | Cc1cc(CC/C=C\COc2c(Cl)cc(C3=NCCO3)cc2Cl)on1 [Example 112, 5-{5-[2,6-Dichloro-4-(4,5-dihydro-2-oxazolyl)phenoxy]-3-pentenyl}-3-methylisoxazole (Z-isomer)] | 0.079 (≈ 0.207 µM) | 0.74
38 | Cc1cc(CCCCCCCCOc2ccc(C3=NC(C)CO3)cc2Cl)on1 (stereo not drawn) [27(b)] | 0.405 (≈ 1 µM) | 25.8
39 | Cc1cc(CCCCCOc2c(Cl)cc(C3=NCCO3)cc2C(F)(F)F)on1 [155(c), 5-{5-[2-Chloro-4-(4,5-dihydro-2-oxazolyl)-6-(trifluoromethyl)phenoxy]pentyl}-3-methylisoxazole] | 0.11 (≈ 0.264 µM) | 0.56
